These results are taken from US12642856B2, “Degraders of hepatitis C virus NS3/4A protein” (DANA-FARBER CANCER INSTITUTE, INC., priority 2018, dated 2026).

pIC50: −log10 of the molar value. Where two headings read alike, the source gives them in different places.

In one assay the test system is HCV(NS3-A156S). Description: Viral resistance assay, HCV(NS3-A156S). The class given is cell-based, Hepatitis C virus. How it is done: (§1) Mutations A156S and V55A, two well-characterized resistance mutations that are located in the active site of the HCV NS3 protease where telaprevir binds, were selected. Infectious HCV clones bearing the NS3-V55A mutation or the NS3-A156S mutation were generated.
(§2) Huh7.5 cells were infected with wildtype HCV, or the telaprevir-resistant mutant viruses, HCV(NS3-V55A) and HCV(NS3-A156S). Cells were treated 24 hours after infection with a range of small molecule concentrations. The amount of infectious virus released to the supernatants at 48 hours post-infection/24 hours post-treatment was measured using a 50% tissue infectious dose (TCID50) assay. The concentration of compound that led to a 50% reduction in viral titers (IC50) was determined by non-linear regression.

The next assay deals with wildtype HCV. Description: Viral resistance assay, wildtype HCV. In kind it is cell-based. The following applies: Hepatitis C virus, Huh7.5, read-out: IC50, 50% reduction in viral titers. As for the experimental part: as §1, §2
In another assay the test system is HCV(NS3-V55A). Put plainly: Viral resistance assay, HCV(NS3-V55A). In kind it is cell-based, Hepatitis C virus. How it is done: as §1, §2
Assay [1] concerns the target T1, full-length HCV NS3 protein fused to eGFP (UniProt P27958+Q96SW2).
T1 construct: expressing the full-length HCV NS3 protein fused to eGFP; mCherry via FMVD 2A self-cleavage linker (C, cleaved yes); expressed in transfected cells
Put plainly: Transient cellular HCV NS3 degradation assay. In kind it is cell-based, Hepatitis C virus. The conditions noted are these: for DC50: read-out: IC50, concentration that led to a 50% reduction in NS3-eGFP accumulation, flow cytometry; for degradation of HCV NS3 by Western blot: 4-hour and 24-hour treatments, NS3-eGFP and NS3-eGFP-mCherry fusion proteins. The text has this: A system was set up to monitor NS3 degradation in the absence of other processes of the infectious viral cycle. […] Expressed in the absence of its cofactor, NS4A, the NS3 protein lacks any enzymatic activity, and the abundance of the NS3-eGFP fusion protein can be reliably monitored by eGFP fluorescence. Since the mCherry portion of the fusion protein is cleaved off during translation, its abundance in cells is not affected by small molecule-induced degradation of NS3-eGFP, and thus it serves as a control for protein expression. […]
The NS3 expressing cells were treated with increasing concentrations of compounds 13 and 22 for 4 hours. […] Compound 11 is an alpha-hydroxylamide analog of compound 13 that cannot form a covalent bond with the catalytic serine of the HCV NS3/4A protease due to a modification of the α-ketoamide group. […] The NS3 expressing cells were treated with increasing concentrations of compounds for 4 hours.
(In general: In flow cytometry, cells or beads pass a laser one at a time.)

For the next assay, the target named is T2, HCV NS3 fusion protein (UniProt P27958+Q96SW2).
T2 construct: expressing the full-length HCV NS3 protein fused to eGFP; mCherry via FMVD 2A self-cleavage linker (C, cleaved yes); expressed in transfected cells
Put plainly: NS3 degradation competition assay with lenalidomide. In kind it is cell-based, Hepatitis C virus. The conditions noted are these: excess of cereblon ligand lenalidomide; Western blot. An excerpt:
The expression of the NS3 fusion protein was induced prior to the treatment of the NS3 expressing cells with an excess of the cereblon ligand lenalidomide.
FIG. 3 is a photograph of a Western blot showing degradation of HCV NS3 in the absence and presence of lenalidomide.
For orientation: A western blot detects proteins with antibodies after separation by electrophoresis.

A further assay has as its system HCV in Huh7.5 cells. Put plainly: Antiviral infectious assay (TCID50). The class given is cell-based, Hepatitis C virus. The following applies: for pIC50: Hepatitis C virus, read-out: IC50, 50% reduction in viral titers. How it is done: (§3) The antiviral activity of the degraders was evaluated in cell culture in a subgenomic replicon assay and an infectious assay. In the subgenomic replicon assay, the hepatoma cell line Huh7.5 was transfected with a HCV subgenomic replicon and treated with small molecules. The luciferase activity encoded by the subgenomic replicon served as a measure for viral replication. In the infectious assay, Huh7.5 cells were infected with HCV, and treated with small molecules. The amount of infectious virus released to the supernatants after treatment with the small molecule degraders served as a measure for their antiviral activity. […] The activity of the compounds described herein is dependent on protein degradation mediated by the cereblon E3 ligase, as HCV NS3 levels are partially rescued in the cereblon-deficient Huh7.5 cell line.
Huh7.5 cells were infected with HCV and treated after 24 hours with a range of small molecule concentrations. The amount of infectious virus released to the supernatants at 48 hours post-infection/24 hours post-treatment was measured using a 50% tissue infectious dose (TCID50) assay. The concentration of compound that led to a 50% reduction in viral titers (IC50) was determined by non-linear regression.

For assay [2], the system named is HCV subgenomic replicon in Huh7.5 cells. Put plainly: Antiviral subgenomic replicon assay. The class given is cell-based. The following applies: Hepatitis C virus, read-out: IC50, 50% reduction in reporter (luciferase) expression levels. As for the experimental part: as §3
Huh7.5 cells were electroporated with the HCV subgenomic replicon and treated after 24 hours with a range of small molecule concentrations. The luciferase activity encoded by the replicon was measured in cells at 48 hours post-electroporation/24 hours post-treatment. The concentration of compound that led to a 50% reduction in reporter expression levels (IC50) was determined by non-linear regression.
(In antiviral work, replicon cells carry a viral genome segment that copies itself.)

Where [3] appears, read: Huh7.5 cells, 48 hours post-infection/24 hours post-treatment, TCID50.
The mark [4] stands for this setting: Huh7.5 cells, 48 hours post-electroporation/24 hours post-treatment.

For `CCC[C@H](NC(=O)[C@@H]1[C@H]2CCC[C@H]2CN1C(=O)[C@@H](NC(=O)[C@@H](NC(=O)c1cnc(C(=O)NCCOCCOCCOc2cc3c4c(cccc4c2)C(=O)N(C2CCC(=O)NC2=O)C3=O)cn1)C1CCCCC1)C(C)(C)C)C(=O)C(=O)NC1CC1` (stereo partly drawn) [Compound 13, N2-((S)-1-cyclohexyl-2-((S)-1-((1S,3aR,6aS)-1-((S)-1-(cyclopropylamino)-1,2-dioxohexan-3-ylcarbamoyl)hexahydrocyclopenta[c]pyrrol-2(1H)-yl)-3,3-dimethyl-1-oxobutan-2-ylamino)-2-oxoethyl)-N5-(2-(2-(2-(2-(2,6-dioxopiperidin-3-yl)-1,3-dioxo-2,3-dihydro-1H-benzo[de]isoquinolin-5-yloxy)ethoxy)ethoxy)ethyl)pyrazine-2,5-dicarboxamide], in the assay with HCV(NS3-A156S), the “change in antiviral potency, NS3-A156S vs wildtype” value is 3 fold. The negative logarithm of the IC50 (pIC50) in the assay on HCV(NS3-A156S) (read-out: IC50, 50% reduction in viral titers, HCV(NS3-A156S), Huh7.5, TCID50) was 5.81; in the assay with wildtype HCV it was 6.28; in the assay on HCV(NS3-V55A) (read-out: IC50, 50% reduction in viral titers, HCV(NS3-V55A), Huh7.5, TCID50), 6.29; with HCV in Huh7.5 cells (setting [3]) it was 6.13. Besides, the DC50 in assay [1] (4 hour treatment) stood at 50 nM. Further, the “effect of lenalidomide on compound-induced degradation of NS3” value (from here on “effect of lenalidomide”) at HCV NS3 fusion protein is “Lenalidomide inhibited degradation of NS3”. The “antiviral activity compared with telaprevir” value in the assay on HCV in Huh7.5 cells (subgenomic replicon and infectious assays, Huh7.5) is recorded as “antiviral potency close to that of the parental compound”.
For the compound `CCC[C@H](NC(=O)[C@@H]1[C@H]2CCC[C@H]2CN1C(=O)[C@@H](NC(=O)[C@@H](NC(=O)c1cnc(C(=O)NCCCCCCNc2cccc3c2CN(C2CCC(=O)NC2=O)C3=O)cn1)C1CCCCC1)C(C)(C)C)C(=O)C(=O)NC1CC1` (stereo partly drawn) [Compound 1, N2-((S)-1-cyclohexyl-2-((S)-1-((1S,3aR,6aS)-1-((S)-1-(cyclopropylamino)-1,2-dioxohexan-3-ylcarbamoyl)hexahydrocyclopenta[c]pyrrol-2(1H)-yl)-3,3-dimethyl-1-oxobutan-2-ylamino)-2-oxoethyl)-N5-(6-(2-(2,6-dioxopiperidin-3-yl)-1-oxoisoindolin-4-ylamino)hexyl)pyrazine-2,5-dicarboxamide], in assay [2] (Huh7.5, 48 h), the pIC50 is 5.52. Further, in assay [1], the “degradation of HCV NS3 by Western blot” value is recorded as “specific reduction in steady-state abundance”. In addition, in assay [1] (4 hour treatment), the DC50 was determined as 669 nM. Besides, the “effect of lenalidomide” value on HCV NS3 fusion protein was “Lenalidomide inhibited degradation of NS3”.
For `CCC[C@H](NC(=O)[C@@H]1[C@H]2CCC[C@H]2CN1C(=O)[C@@H](NC(=O)[C@@H](NC(=O)c1cnc(C(=O)NCCCCCCCC(=O)Nc2cccc3c2CN(C2CCC(=O)NC2=O)C3=O)cn1)C1CCCCC1)C(C)(C)C)C(=O)C(=O)NC1CC1` (stereo partly drawn) [Compound 4, N2-((S)-1-cyclohexyl-2-((S)-1-((1S,3aR,6aS)-1-((S)-1-(cyclopropylamino)-1,2-dioxohexan-3-ylcarbamoyl)hexahydrocyclopenta[c]pyrrol-2(1H)-yl)-3,3-dimethyl-1-oxobutan-2-ylamino)-2-oxoethyl)-N5-(8-(2-(2,6-dioxopiperidin-3-yl)-1-oxoisoindolin-4-ylamino)-8-oxooctyl)pyrazine-2,5-dicarboxamide], in assay [2] (setting [4]), the pIC50 was 5.88. For the same compound, the “degradation of HCV NS3 by Western blot” value in assay [1] is reported as “specific reduction in steady-state abundance”. In addition, in assay [1] (4 hour treatment), the DC50 amounted to 2680 nM. Also, the “effect of lenalidomide” value on HCV NS3 fusion protein is “Lenalidomide inhibited degradation of NS3”.
For the compound `CCC[C@H](NC(=O)[C@@H]1[C@H]2CCC[C@H]2CN1C(=O)[C@@H](NC(=O)[C@@H](NC(=O)c1cnc(C(=O)NCCOCCOCCNc2cccc3c2C(=O)N(C2CCC(=O)NC2=O)C3=O)cn1)C1CCCCC1)C(C)(C)C)C(=O)C(=O)NC1CC1` (stereo partly drawn) [Compound 3, N2-((S)-1-cyclohexyl-2-((S)-1-((1S,3aR,6aS)-1-((S)-1-(cyclopropylamino)-1,2-dioxohexan-3-ylcarbamoyl)hexahydrocyclopenta[c]pyrrol-2(1H)-yl)-3,3-dimethyl-1-oxobutan-2-ylamino)-2-oxoethyl)-N5-(2-(2-(2-(2-(2,6-dioxopiperidin-3-yl)-1,3-dioxoisoindolin-4-ylamino)ethoxy)ethoxy)ethyl)pyrazine-2,5-dicarboxamide], the values for the pIC50 (in assay [2] (setting [4]); in the assay on HCV in Huh7.5 cells (setting [3])) were 5.58 and 5.53, respectively. Moreover, the “degradation of HCV NS3 by Western blot” value in assay [1] was “specific reduction in steady-state abundance”. The “effect of lenalidomide” value at HCV NS3 fusion protein is reported as “Lenalidomide inhibited degradation of NS3”.
Turning to `CCC[C@H](NC(=O)[C@@H]1[C@H]2CCC[C@H]2CN1C(=O)[C@@H](NC(=O)[C@@H](NC(=O)c1cnccn1)C1CCCCC1)C(C)(C)C)C(=O)C(=O)NC1CC1` [telaprevir, reference compound], the “change in antiviral potency, NS3-A156S vs wildtype” value in the assay on HCV(NS3-A156S) was determined as 10 fold. Further, the pIC50 with wildtype HCV is 7.01; in assay [2] (Huh7.5, 48 h) it was 6.62; in the assay on HCV in Huh7.5 cells (Huh7.5, 48 h), 6.86. For the same compound, in the assay on HCV(NS3-V55A), the “change in antiviral potency, NS3-V55A vs wildtype” value is recorded as 3 fold. Further, the “degradation of transiently expressed HCV NS3 (decrease in NS3-eGFP abundance)” value in assay [1] (4 hour treatment, increasing concentrations) is recorded as “not observed”.

As a reminder, the pIC50 is the IC50 on a negative log10 scale, so that one unit is a factor of ten.
